Where two headings read alike, the source gives them in different places.

The results in this text go back to patent US4820834A, “Benzodiazepine analogs” (priority 1987, dated 1989).

In experiment [1] the target is T1, CCK receptor (brain, cerebral cortex) (Cavia porcellus, UniProt H0VZC5).
T1 construct: Cerebral cortex was dissected and used as a receptor source; from tissue; host or cells: guinea pig cerebral cortex membranes (male Hartley)
T1 sequence (H0VZC5 1-426): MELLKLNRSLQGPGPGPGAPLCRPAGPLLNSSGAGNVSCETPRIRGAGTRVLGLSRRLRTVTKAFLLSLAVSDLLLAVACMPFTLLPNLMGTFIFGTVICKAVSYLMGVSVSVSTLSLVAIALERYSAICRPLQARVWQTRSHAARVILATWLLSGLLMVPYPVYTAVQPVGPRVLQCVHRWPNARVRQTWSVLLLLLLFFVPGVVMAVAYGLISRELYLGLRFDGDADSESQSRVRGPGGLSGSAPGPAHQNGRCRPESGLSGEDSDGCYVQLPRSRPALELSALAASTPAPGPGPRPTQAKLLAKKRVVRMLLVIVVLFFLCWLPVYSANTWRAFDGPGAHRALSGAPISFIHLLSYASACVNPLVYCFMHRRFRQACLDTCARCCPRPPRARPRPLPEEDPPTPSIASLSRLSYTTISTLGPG
Nature of the experiment: biochemical. Type of experiment: binding, Male Hartley guinea pigs. Particulars: guinea pig cerebral cortex, ^125 I-CCK-33, 25° C., 2 hours. Summed up: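 Binding of [radiolabeled] CCK-33 measured by gamma counting of centrifuged pellets after 2 h at 25°C. Membranes came from guinea pig brain cortex, suspended in 10 mM HEPES, 5 mM MgCl2, 1 mM EGTA, 0.25 mg/ml bacitracin, 0.4% BSA.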

For experiment [2], the target named is T2, Gastrin receptor (gastric glands) (Cavia porcellus, UniProt H0VZC5).
T2 construct: The washed guinea pig gastric glands prepared as above were resuspended; from tissue; host or cells: guinea pig gastric mucosal glands (male Hartley)
T2 sequence (H0VZC5 1-426): T1 sequence (H0VZC5 1-426)
As to the kind of experiment: Gastrin Receptor Binding in Guinea Pig Gastric Glands. Also on record: species or system guinea pig (male Hartley). Particulars: 25° C., 30 minutes.

Another experiment concerns the target T3, CCK receptor (pancreas) (Rattus norvegicus, UniProt P30551).
T3 construct: The whole pancreas was dissected free of fat tissue and was homogenized; from tissue; host or cells: rat pancreas membranes (Sprague-Dawley)
T3 sequence (P30551 1-444): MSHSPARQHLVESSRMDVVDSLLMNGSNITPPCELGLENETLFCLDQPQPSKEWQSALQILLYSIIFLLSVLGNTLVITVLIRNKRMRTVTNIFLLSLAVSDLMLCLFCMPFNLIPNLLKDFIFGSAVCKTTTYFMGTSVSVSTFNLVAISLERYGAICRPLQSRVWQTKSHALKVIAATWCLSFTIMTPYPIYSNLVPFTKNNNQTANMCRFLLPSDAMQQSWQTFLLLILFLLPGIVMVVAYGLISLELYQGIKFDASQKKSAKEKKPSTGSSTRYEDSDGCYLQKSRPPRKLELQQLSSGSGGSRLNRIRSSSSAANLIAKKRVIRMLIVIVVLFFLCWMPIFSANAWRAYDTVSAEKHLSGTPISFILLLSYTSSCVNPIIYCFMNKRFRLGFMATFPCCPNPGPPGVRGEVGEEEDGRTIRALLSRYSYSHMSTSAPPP
Nature of the experiment: CCK Receptor Binding (Pancreas): inhibition of ^125 I-CCK-33 binding. Particulars: rat pancreas membranes, ^125 I-CCK-33, 37° C., 30 minutes. Also on record: species or system Male Sprague-Dawley rats. In outline: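 Bound ^125I-CCK-33 was counted in pellets after a 30 min, 37° C incubation followed by centrifugation. Membranes came from male Sprague-Dawley rat pancreas, assayed in Tris HCl pH 7.7 containing DTT, bacitracin, PMSF and o-phenanthroline. For Scatchard analysis, tracer was diluted with rising unlabelled CCK-33.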

The mark [3] stands for this setting: read-out: IC50 ^125 I-CCK Brain.
The mark [4] stands for this setting: ^125 I-gastrin, read-out: IC50 ^125 I-Gastrin Gastric Glands.
Where [5] appears, read: IC50 ^125 I-Gastrin Gastric Glands.
Setting [6] is: read-out: IC50 ^125 I-CCK Pancreas.

As for `O=C1Nc2ccccc2C(c2ccccc2F)=NC1CNc1cncc(Cl)n1` (racemic) [Example 70, 1,3-Dihydro-5-(2'-fluorophenyl)-3-(RS)-(6'-chloropyrazin-2yl)aminomethyl-2H-4-benzodiazepin-2-one], the IC50 (as a rule, the concentration needed to halve the response being measured) in experiment [1] (setting [3]) amounted to 100 µM; in experiment [2] (setting [4]), 200 µM; on CCK receptor (pancreas) (IC50 ^125 I-CCK Pancreas), 15000 nM.

With `O=C(NC1N=C(c2ccccc2F)c2ccccc2NC1=S)c1cc2ccccc2[nH]1` (racemic) [Example 181, 1,3-Dihydro-5-(2-fluorophenyl)-3-(RS)-(2-indole) carbonylamino-2H-1,4-benzodiazepin-2-thione], the values for the IC50 (in experiment [1] (IC50 ^125 I-CCK Brain); in experiment [2] (setting [5]); on CCK receptor (pancreas) (IC50 ^125 I-CCK Pancreas)) were 9.3 µM, 4.4 µM and 2 nM, respectively.

Consider `CC(C)(C)OC(=O)N[C@@H](Cc1c[nH]c2ccccc12)C(=O)NC1N=C(c2ccccc2)c2ccccc2NC1=O` (mixture of isomers) [Example 77, 3(RS)-(Boc-L-tryptophanyl)amino-1,3-dihydro-5-phenyl-2H-1,4-benzodiazepin-2-one], for which the IC50 turned out to be 20 µM in experiment [1] (IC50 ^125 I-CCK Brain), 250 µM in experiment [2] (setting [5]) and 6000 nM on CCK receptor (pancreas) (IC50 ^125 I-CCK Pancreas).

On to `CCN(CC)C(=O)C(C)N1C(=O)C(NC(=O)OCc2ccccc2)N=C(c2ccccc2)c2ccccc21` (stereo not drawn) [Example 244, (1-(2-(Diethylamino)-1-methyl-2-oxoethyl)-2,3-dihydro-2-oxo-5-phenyl-1H-1,4-benzodiazepin-3-yl)-carbamic acid phenylmethyl ester], for which the IC50 in experiment [1] (setting [3]) amounted to 0.74 µM; in experiment [2] (setting [4]), 0.5 µM; at CCK receptor (pancreas) (IC50 ^125 I-CCK Pancreas), 950 nM.

As for `CCOC(=O)CN1C(=O)C(NC(=O)c2cc3ccccc3[nH]2)N=C(c2ccccc2F)c2ccccc21` (stereo not drawn) [Example 214, 5-(2-Fluorophenyl)-2,3-dihydro-3-((1H-indol-2-ylcarbonyl)amino)-2-oxo-1H-1,4-benzodiazepine-1-acetic acid ethyl ester], the IC50 in experiment [1] (IC50 ^125 I-CCK Brain) turned out to be 0.22 µM; in experiment [2] (setting [5]), 0.12 µM; at CCK receptor (pancreas) (setting [6]) it was 3 nM.

Take `CC(C)CC(=O)N[C@H]1N=C(c2ccccc2)c2ccccc2N(C)C1=O` [Example 190, (S)-N-(2,3-Dihydro-1-methyl-2-oxo-5-phenyl-1H-1,4-benzodiazepin-3-yl)-3-methylbutanamide]: the IC50 was above 100 µM in experiment [1] (setting [3]), 130 µM in experiment [2] (setting [4]) and 780 nM on CCK receptor (pancreas) (IC50 ^125 I-CCK Pancreas).

Regarding `CN1C(=O)[C@@H](NC(=O)Nc2ccc(Cl)cc2)N=C(c2ccccc2)c2ccccc21` [Example 233], the IC50 in experiment [1] (IC50 ^125 I-CCK Brain) was found to be 0.41 µM; in experiment [2] (setting [4]) it was 0.58 µM; on CCK receptor (pancreas) (setting [6]) it was 26 nM.

`CN1C(=O)C(NC(=O)NCc2ccccc2)N=C(c2ccccc2)c2ccccc21` (stereo not drawn) [Example 251, N-(2,3-Dihydro-1-methyl-2-oxo-5-phenyl-1H-1,4-benzodiazepin-3-yl)-N'-phenylmethylurea]: the IC50 in experiment [1] (setting [3]) came to 0.86 µM; in experiment [2] (setting [4]) it was 0.42 µM; at CCK receptor (pancreas) (setting [6]) it was 490 nM.

In the case of `CN1C(=O)C(NC(=O)Nc2cccc(F)c2)N=C(c2ccccc2)c2ccccc21` (stereo not drawn) [Example 271, N-(2,3-Dihydro-1-methyl-2-oxo-5-phenyl-1H-1,4-benzodiazepin-3-yl)-N'-(3-fluorophenyl)-urea], the IC50 in experiment [1] (IC50 ^125 I-CCK Brain) is 0.054 µM; in experiment [2] (setting [5]), 0.01 µM; on CCK receptor (pancreas) (setting [6]) it was 10 nM.

`CN1C(=O)[C@@H](NC(=O)c2ccccc2I)N=C(c2ccccc2F)c2ccccc21` [Example 170, 3(S)-(-)-1,3-Dihydro-5-(2-fluorophenyl)-3-(2-iodobenzoylamino)-1-methyl-2H-1,4-benzodiazepin-2-one]: the IC50 in experiment [1] (IC50 ^125 I-CCK Brain) came out at 45 µM; in experiment [2] (setting [4]) it was 11 µM; at CCK receptor (pancreas) (setting [6]), 800 nM.

For `NCCCC[C@H]1N=C(c2ccccc2F)c2ccccc2NC1=O` [Example 65, 1,3-Dihydro-5-(2'-fluorophenyl)-3(R)-(4-amino)butyl-2H-1,4-benzodiazepin-2-one], the IC50 is above 100 µM in experiment [1] (IC50 ^125 I-CCK Brain), above 1000 µM in experiment [2] (setting [5]) and above 100000 nM at CCK receptor (pancreas) (IC50 ^125 I-CCK Pancreas).
